From PubChem BioAssay AID248 (DTP/NCI, 2004)
Toxic doses and inconclusive results are not listed. Rule as the data show it: active = T/C of 150% or more; inactive = T/C below 125%.

System: L1210 leukemia ip in BDF1 mice, survival T/C
Experiment: NCI In Vivo Anticancer Drug Screen. Data for tumor model L1210 Leukemia (intraperitoneal) in B6D2F1 (BDF1) mice
Settings: endpoint: mean survival time, higher = longer survival
Outline: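 Transplantable tumor model; survival measured in treated vs vehicle control mice. Value = treated/control.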

[1] = dose: 100.0 mg/kg/injection, schedule: Q01DX009 (ip), vehicle: saline with Tween-80
[2] = dose: 100.0 mg/kg/injection, schedule: Q04DX003 (ip), vehicle: saline with Tween-80
[3] = dose: 100.0 mg/kg/injection, schedule: Q04DX003 (ip), vehicle: saline
[4] = dose: 200.0 mg/kg/injection, schedule: Q04DX003 (ip), vehicle: saline
[5] = dose: 400.0 mg/kg/injection, schedule: Q04DX003 (ip), vehicle: saline
[6] = dose: 100.0 mg/kg/injection, schedule: Q04DX002 (ip), vehicle: saline with Tween-80
[7] = dose: 200.0 mg/kg/injection, schedule: Q04DX002 (ip), vehicle: saline with Tween-80
[8] = dose: 400.0 mg/kg/injection, schedule: Q04DX002 (ip), vehicle: saline with Tween-80
[9] = dose: 200.0 mg/kg/injection, schedule: Q01DX009 (ip), vehicle: saline with Tween-80
[10] = dose: 400.0 mg/kg/injection, schedule: Q01DX009 (ip), vehicle: saline with Tween-80
[11] = dose: 100.0 mg/kg/injection, schedule: Q01DX009 (ip), vehicle: saline
[12] = dose: 200.0 mg/kg/injection, schedule: Q01DX009 (ip), vehicle: saline
[13] = dose: 400.0 mg/kg/injection, schedule: Q01DX009 (ip), vehicle: saline
[14] = dose: 100.0 mg/kg/injection, schedule: Q01DX001 (ip), vehicle: saline
[15] = dose: 200.0 mg/kg/injection, schedule: Q01DX001 (ip), vehicle: saline
[16] = dose: 400.0 mg/kg/injection, schedule: Q01DX001 (ip), vehicle: saline

Measured: T/C

O=C1C=CCCCC1
inactive: dose: 25.0 mg/kg/injection, schedule: Q01DX009 (ip), vehicle: saline with Tween-80 95 % of control | dose: 50.0 mg/kg/injection, schedule: Q01DX009 (ip), vehicle: saline with Tween-80 101 % of control | [1] 103 % of control | [2] 103 % of control

Clc1ccc(Cl)c(N=Cc2ccc3c(c2)OCO3)c1
inactive: [3] 92 % of control | [4] 95 % of control | [5] 92 % of control

CCC1CC(O)c2c(O)c3c(c(O)c2C1O)C(=O)c1cccc(O)c1C3=O (configuration not stated) (tested in a mixture with another compound)
inactive: dose: 0.25 mg/kg/injection, schedule: Q01DX015 (ip), vehicle: carboxymethylcellulose (CMC) 101 % of control | dose: 0.5 mg/kg/injection, schedule: Q01DX015 (ip), vehicle: carboxymethylcellulose (CMC) 101 % of control | dose: 3.12 mg/kg/injection, schedule: Q01DX001 (ip), vehicle: carboxymethylcellulose (CMC) 93 % of control

CCOCCOCCOC(C)Oc1cc(OC)ccc1OC (configuration not stated)
inactive: dose: 100.0 mg/kg/injection, schedule: Q04DX002 (ip), vehicle: saline 107 % of control | dose: 200.0 mg/kg/injection, schedule: Q04DX002 (ip), vehicle: saline 93 % of control | dose: 400.0 mg/kg/injection, schedule: Q04DX002 (ip), vehicle: saline 101 % of control

O=C(O)CCc1ccccc1-c1ccccc1
inactive: dose: 50.0 mg/kg/injection, schedule: Q04DX002 (ip), vehicle: saline with Tween-80 96 % of control | [6] 101 % of control | [7] 96 % of control | [8] 107 % of control

CC1CN(Cc2ccccc2)C(=S)NC1=O (configuration not stated)
inactive: dose: 25.0 mg/kg/injection, schedule: Q01DX Z (ip), vehicle: methylcellulose (MC) 89 % of control | dose: 50.0 mg/kg/injection, schedule: Q01DX Z (ip), vehicle: methylcellulose (MC) 98 % of control

C[Si](C)(CCCOCC1CO1)O[Si](C)(C)CCCOCC1CO1 (configuration not stated)
inactive: [1] 97 % of control | [2] 95 % of control | [9] 97 % of control | dose: 200.0 mg/kg/injection, schedule: Q04DX003 (ip), vehicle: saline with Tween-80 89 % of control | [10] 92 % of control | dose: 400.0 mg/kg/injection, schedule: Q04DX003 (ip), vehicle: saline with Tween-80 87 % of control

CC12CC/C(=N/NC(=O)Cc3c[nH]c4ccccc34)CC1CCC1C2CCC2(C)C(OC(=O)c3ccccc3)CCC12 (configuration not stated)
inactive: dose: 100.0 mg/kg/injection, schedule: Q01DX001 (sc), vehicle: steriod suspending solution 101 % of control | dose: 100.0 mg/kg/injection, schedule: Q01DX009 (sc), vehicle: steriod suspending solution 104 % of control | dose: 200.0 mg/kg/injection, schedule: Q01DX001 (sc), vehicle: steriod suspending solution 100 % of control | dose: 200.0 mg/kg/injection, schedule: Q01DX009 (sc), vehicle: steriod suspending solution 104 % of control | dose: 400.0 mg/kg/injection, schedule: Q01DX001 (sc), vehicle: steriod suspending solution 111 % of control | dose: 400.0 mg/kg/injection, schedule: Q01DX009 (sc), vehicle: steriod suspending solution 102 % of control

O=[N+]([O-])c1cccc(N=Cc2ccc3c(c2)OCO3)c1
inactive: [11] 96 % of control | [12] 93 % of control | [13] 100 % of control

CS(=O)(=O)OCCCS(=O)(=O)O
inactive: [14] 102 % of control

NC(=O)N1OCC(N)C1=O (configuration not stated)
inactive: [11] 101 % of control | [3] 108 % of control | [12] 87 % of control | [4] 98 % of control | [13] 95 % of control | [5] 97 % of control

O=C1OC(/C=C/c2ccccc2)=NC/1=C\c1ccc(Cl)cc1
inactive: [11] 105 % of control | [12] 105 % of control | [13] 94 % of control

C=CCc1ccccc1C
inactive: [14] 106 % of control | [15] 102 % of control | [16] 101 % of control

O=C(Oc1ccccc1[N+](=O)[O-])c1ccc(Cl)c(Cl)c1
inactive: dose: 100.0 mg/kg/injection, schedule: Q04DX002 (ip), vehicle: Klucel (hydroxypropylcellulose) (HPC) 90 % of control | dose: 200.0 mg/kg/injection, schedule: Q04DX002 (ip), vehicle: Klucel (hydroxypropylcellulose) (HPC) 97 % of control | dose: 400.0 mg/kg/injection, schedule: Q04DX002 (ip), vehicle: Klucel (hydroxypropylcellulose) (HPC) 100 % of control

CCCCC(=O)Nc1cccc(O)c1
inactive: [1] 90 % of control | [9] 93 % of control | [10] 107 % of control

CCCN1CCN(CCCO)CC1C (configuration not stated)
inactive: [14] 103 % of control | [15] 105 % of control | [16] 103 % of control

[Cl][Sn]([c]1cccc2ccccc12)([c]1cccc2ccccc12)[c]1cccc2ccccc12
inactive: [6] 98 % of control | [7] 102 % of control | [8] 87 % of control

O=C1/C(=C/c2ccc3c(c2)OCO3)C2CCC(N2)/C1=C\c1ccc2c(c1)OCO2
inactive: dose: 100.0 mg/kg/injection, schedule: Q01DX001 (ip), vehicle: other 89 % of control | dose: 400.0 mg/kg/injection, schedule: Q01DX001 (ip), vehicle: other 101 % of control

O=C(Nc1cccc(C(F)(F)F)c1)C(Br)C(Br)c1ccccc1 (configuration not stated)
inactive: dose: 100.0 mg/kg/injection, schedule: Q01DX009 (ip), vehicle: Klucel (hydroxypropylcellulose) (HPC) 103 % of control | dose: 200.0 mg/kg/injection, schedule: Q01DX009 (ip), vehicle: Klucel (hydroxypropylcellulose) (HPC) 100 % of control

O=C1OC(=O)C23CC=CCC12CC=CC3 (configuration not stated)
inactive: dose: 50.0 mg/kg/injection, schedule: Q01DX001 (ip), vehicle: carboxymethylcellulose (CMC) 104 % of control | dose: 100.0 mg/kg/injection, schedule: Q01DX001 (ip), vehicle: carboxymethylcellulose (CMC) 113 % of control | dose: 200.0 mg/kg/injection, schedule: Q01DX001 (ip), vehicle: carboxymethylcellulose (CMC) 102 % of control | dose: 400.0 mg/kg/injection, schedule: Q01DX001 (ip), vehicle: carboxymethylcellulose (CMC) 104 % of control
